# Measurements: patent EP0545103A1, “Insecticidal, acaricidal and molluscicidal 1-(substituted) thioalkylpyrroles” (priority 1991, dated 1993)
# Key:
# Venturia inaequalis = test: In vivo fungicidal activity, Apple Scab (AS); conditions: rate 400 ppm, host plants sprayed then inoculated, rating, averaged
# Procedure: (§1) Test compounds are dissolved in acetone and diluted with deionized water containing about 0.05% TWEEN 20®, a polyoxyethylene sorbitan monolaurate surfactant manufactured by Atlas Chemical Industries, to give a concentration of 400 ppm. Subsequent dilutions are made with an 0.05% aqueous solution of TWEEN 20®.
# (§2) Host plants are sprayed with test solution, dried and inoculated with fungi. When disease symptom development is optimal, the plants are rated for disease control according to the rating scale shown below. Each test contains inoculated treated plants, inoculated untreated plants and a reference standard.
# (§3) When more than one test is run, the data are averaged.
# [1] = tested on: Spodoptera eridania, 3rd instar larvae, southern armyworm; test: Southern armyworm 3rd instar test, dipped limabean leaf; format: in vivo; conditions: 1000 ppm
# Summary of the method: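 Ten 3rd instar larvae fed on limabean leaves that had been dipped for 3 s in test solution and dried. Test solutions were diluted in water from a 10,000 ppm stock in 35% acetone/water. Ratings at days 3 and 5 covered death, feeding reduction and abnormal molting.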
# Cercospora beticola = test: In vivo fungicidal activity, Sugarbeet Cercospora (SBC); conditions: rate 400 ppm, rating, averaged
# Procedure: as §1, §2, §3
# Plasmopara viticola = test: In vivo fungicidal activity, Grape Downy Mildew (GDM); conditions: rate 400 ppm, rating, averaged
# Procedure: as §1, §2, §3
# [2] = tested on: Erysiphe graminis, tritici; test: In vivo fungicidal activity, Wheat Powdery Mildew (WPM); conditions: rate 400 ppm, rating, averaged
# Procedure: as §1, §2, §3
# Rhizoctonia solani = test: In vitro fungicidal activity, mycelial growth inhibition on agar (Rhiz); format: cell-based; conditions: 48 h, two days
# Procedure: (§4) Test compounds are dissolved in acetone, diluted with sterile, deionized water and mixed with a partially cooled, autoclaved, chemically defined agar medium. This mixture is poured into several 100mm x 15mm sterile plastic plates and allowed to solidify. The surface of each plate is inoculated with a single disc of mycelium and agar cut with an 8mm diameter cork borer from actively growing cultures of assay fungi on a chemically defined agar medium. The plates are incubated at room temperature. Growth inhibition is determined when the mycelial growth on unamended control media has reached the edge of the petri plates. The time interval varies depending on the growth rate of the fungus; two days for Pythium ultimum (pyth) and Rhizoctonia solani (Rhiz) , five days for Botrytis cinerea (Betry) and 7-10 days for Pseudocercosporella herpotrichoides (Pseudo). Each colony diameter is measured and compared with the untreated control and the percent inhibition is calculated as follows: [formula] Each test includes a solvent blank consisting of the formulation without a test compound in addition to the untreated control.
# (§5) Assay fungi include the plant pathogens, Pythium ultimum (Pyth) and Rhizoctonia solani (Rhiz).
# (§6) When more than one test is run the data are averaged.
# [3] = tested on: Diabrotic undecimpunctata howardi, 3rd instar southern corn rootworm; test: Southern corn rootworm soil test; format: in vivo; design: key: 0: no effect; 10-25% kill; 26-35% kill; 36-45% kill; 46-55% kill; 56-65% kill; 66-75% kill; 76-85% kill; 86-99% kill; 9: 100% kill; conditions: 50 (ppm as headed), mortality rating after 6 days
# Summary of the method: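 Soil test with ten 3rd instar larvae per jar, mortality read after 6 days and missing larvae counted as dead; scores on a rating scale. Doses were 1.25 and 0.25 mg a.i. per jar, corresponding to roughly 50 and 10 kg/ha, loaded on talc from acetone and mixed into moist soil with millet seed as food.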
# [4] = tested on: Puccinia recondita, tritici; test: In vivo fungicidal activity, Wheat Leaf Rust (WLR); conditions: rate 400 ppm, rating, averaged
# Procedure: as §1, §2, §3
# Pythium ultimum = test: In vitro fungicidal activity, mycelial growth inhibition on agar (Pyth); format: cell-based; conditions: Globisporangium ultimum, 48 h, two days
# Procedure: as §4, §5, §6
smiles,measurement,setting,value
"N#CSCn1c(Br)c(Br)c(C#N)c1Br [Example 38, 1-[(cyanothio)methyl]-2,4,5-tribromopyrrole-3-carbonitrile]",Disease Control AS,Venturia inaequalis,2.0
same,ARMYWORM Day 3,[1]; rating at 3 days,9 (100% kill)
same,ARMYWORM Day 5,[1]; rating at 5 days,9 (100% kill)
same,Disease Control SBC,Cercospora beticola,0 (0)
same,Disease Control GDM,Plasmopara viticola,3.0
same,Disease Control WPM,[2],0 (0)
same,inhibition at 1 ppm,Rhizoctonia solani; rate 1 ppm in agar,1.5%
same,inhibition at 10 ppm,Rhizoctonia solani; rate 10 ppm in agar,3.5%
same,inhibition at 25 ppm,Rhizoctonia solani; rate 25 ppm in agar,5.8%
same,SOUTHERN CORN ROOTWORM,[3],0
same,Disease Control WLR,[4],5.0
same,inhibition at 1 ppm,Pythium ultimum; rate 1 ppm in agar,1.5%
same,inhibition at 10 ppm,Pythium ultimum; rate 10 ppm in agar,4%
same,inhibition at 25 ppm,Pythium ultimum; rate 25 ppm in agar,4.5%
